Data: patent US20120245137A1 (Zalicus Pharmaceuticals Ltd., priority 2009, published 2012)
Read-outs that look alike come from different tables or passages of the source.

Tests used:
Format in all cases: cell-based
[1] = molecular target: Human Cav 2.2 channels (Homo sapiens, UniProt Q00975); assay: Fluorescent assay for CaV2.2 channels using potassium depolarization (VIPR/FLIPR); details: FLIPR data
Outline: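 Fluo-4 calcium fluorescence (480/535 nm) was recorded on VIPR or FLIPR after depolarization to 70 mM final potassium. Before this, cells were preincubated 30 min at 25 °C with compound in 4–30 mM potassium, so that state-dependent block could be assessed; the cells were HEK293 coexpressing Cav2.2, α2δ, β and Kir2.3.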

[2] = molecular target: T-type calcium channel (Homo sapiens, UniProt O95180); assay: T-type channel blocking, FLIPR data (Table 6); details: for CAv3.2 IC50 Ratio closed/inact.: CAv3.2, ratio closed/inact.
Description: (§1) Another method, high-throughput spectrophotometric assay, utilizes loading of the cell lines with a fluorescent dye sensitive to intracellular calcium concentration and subsequent examination of the effects of compounds on the ability of depolarization by potassium chloride or other means to alter intracellular calcium levels.

[3] = molecular target: T-type calcium channel (Homo sapiens, UniProt O43497); assay: T-type channel blocking, FLIPR data (Table 6); details: CAv3.1
Description: as §1

[4] = molecular target: CAv1.2 (Homo sapiens, UniProt Q13936); assay: L-type (CAv1.2) channel blocking, FLIPR data (Table 6)
[5] = closed state, read-out: CAv2.2 IC50 Closed
[6] = inactivated state, read-out: CAv2.2 IC50 Inact.
[7] = CAv3.2, closed state, read-out: CAv3.2 IC50 Closed
[8] = CAv3.2, inactivated state, read-out: CAv3.2 IC50 Inact.
[9] = closed state, read-out: CAv1.2 IC50 Closed
[10] = inactivated state, read-out: CAv1.2 IC50 Inact.

Chain of Human Cav 2.2 channels (Q00975 whole entry): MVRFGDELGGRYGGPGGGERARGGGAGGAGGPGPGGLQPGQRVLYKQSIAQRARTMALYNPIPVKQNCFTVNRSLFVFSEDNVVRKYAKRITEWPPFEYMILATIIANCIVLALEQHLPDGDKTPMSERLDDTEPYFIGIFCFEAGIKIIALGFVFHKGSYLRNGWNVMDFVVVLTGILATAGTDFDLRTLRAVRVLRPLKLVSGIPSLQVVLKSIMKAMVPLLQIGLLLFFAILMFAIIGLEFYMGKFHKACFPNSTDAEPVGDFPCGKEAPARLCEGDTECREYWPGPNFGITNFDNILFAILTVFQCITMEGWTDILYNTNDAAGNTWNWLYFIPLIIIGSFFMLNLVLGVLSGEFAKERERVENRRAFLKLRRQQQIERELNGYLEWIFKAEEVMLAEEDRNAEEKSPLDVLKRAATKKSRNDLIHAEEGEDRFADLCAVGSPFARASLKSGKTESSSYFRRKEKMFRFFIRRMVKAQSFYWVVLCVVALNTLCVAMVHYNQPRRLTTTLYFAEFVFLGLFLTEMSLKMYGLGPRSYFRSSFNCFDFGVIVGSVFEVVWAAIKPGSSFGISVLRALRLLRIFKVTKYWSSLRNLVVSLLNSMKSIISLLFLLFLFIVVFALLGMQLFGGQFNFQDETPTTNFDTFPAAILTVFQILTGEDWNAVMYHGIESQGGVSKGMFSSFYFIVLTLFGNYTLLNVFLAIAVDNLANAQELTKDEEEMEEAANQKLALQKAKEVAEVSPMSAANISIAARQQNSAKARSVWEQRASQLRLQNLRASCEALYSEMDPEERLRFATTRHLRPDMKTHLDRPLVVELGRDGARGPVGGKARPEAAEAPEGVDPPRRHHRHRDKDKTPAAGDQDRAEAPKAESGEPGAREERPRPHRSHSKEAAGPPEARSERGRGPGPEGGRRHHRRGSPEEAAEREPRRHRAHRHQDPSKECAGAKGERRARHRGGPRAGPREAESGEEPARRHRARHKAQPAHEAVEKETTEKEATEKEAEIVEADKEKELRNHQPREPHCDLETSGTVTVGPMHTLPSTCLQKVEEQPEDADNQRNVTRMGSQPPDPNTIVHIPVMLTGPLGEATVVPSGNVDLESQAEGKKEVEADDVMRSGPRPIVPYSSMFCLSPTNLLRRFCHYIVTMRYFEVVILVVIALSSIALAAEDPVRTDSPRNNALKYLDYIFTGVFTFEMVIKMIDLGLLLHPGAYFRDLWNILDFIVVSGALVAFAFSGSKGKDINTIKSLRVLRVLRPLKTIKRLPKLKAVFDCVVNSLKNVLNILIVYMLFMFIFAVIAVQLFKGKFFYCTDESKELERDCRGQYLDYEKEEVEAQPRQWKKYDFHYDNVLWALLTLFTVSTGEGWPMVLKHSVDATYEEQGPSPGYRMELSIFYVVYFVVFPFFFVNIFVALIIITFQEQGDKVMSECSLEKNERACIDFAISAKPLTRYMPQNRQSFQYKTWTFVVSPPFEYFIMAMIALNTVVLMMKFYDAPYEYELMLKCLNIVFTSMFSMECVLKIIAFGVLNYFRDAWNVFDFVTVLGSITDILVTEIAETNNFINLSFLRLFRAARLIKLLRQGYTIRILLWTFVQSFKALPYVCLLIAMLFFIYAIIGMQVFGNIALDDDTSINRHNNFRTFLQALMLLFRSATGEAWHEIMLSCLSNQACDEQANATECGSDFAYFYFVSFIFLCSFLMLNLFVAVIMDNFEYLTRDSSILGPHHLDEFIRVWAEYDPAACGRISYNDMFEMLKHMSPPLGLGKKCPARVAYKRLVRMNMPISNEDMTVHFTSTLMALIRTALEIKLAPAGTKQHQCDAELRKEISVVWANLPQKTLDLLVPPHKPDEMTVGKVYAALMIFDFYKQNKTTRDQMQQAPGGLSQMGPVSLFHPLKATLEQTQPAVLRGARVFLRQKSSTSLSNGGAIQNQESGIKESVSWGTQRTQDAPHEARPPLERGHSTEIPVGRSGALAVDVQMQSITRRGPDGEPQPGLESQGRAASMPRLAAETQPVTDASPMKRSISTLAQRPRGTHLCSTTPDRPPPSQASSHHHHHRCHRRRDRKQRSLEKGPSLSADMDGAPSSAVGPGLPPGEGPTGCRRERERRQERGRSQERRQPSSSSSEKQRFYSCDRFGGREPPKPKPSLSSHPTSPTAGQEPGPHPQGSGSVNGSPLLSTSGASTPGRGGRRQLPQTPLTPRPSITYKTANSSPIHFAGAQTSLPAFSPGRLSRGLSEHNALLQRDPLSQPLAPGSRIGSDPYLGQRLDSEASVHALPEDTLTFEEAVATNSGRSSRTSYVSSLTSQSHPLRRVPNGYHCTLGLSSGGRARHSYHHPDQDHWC
Chain of Human Cav 2.2 channels (P54289 25-1103 partner): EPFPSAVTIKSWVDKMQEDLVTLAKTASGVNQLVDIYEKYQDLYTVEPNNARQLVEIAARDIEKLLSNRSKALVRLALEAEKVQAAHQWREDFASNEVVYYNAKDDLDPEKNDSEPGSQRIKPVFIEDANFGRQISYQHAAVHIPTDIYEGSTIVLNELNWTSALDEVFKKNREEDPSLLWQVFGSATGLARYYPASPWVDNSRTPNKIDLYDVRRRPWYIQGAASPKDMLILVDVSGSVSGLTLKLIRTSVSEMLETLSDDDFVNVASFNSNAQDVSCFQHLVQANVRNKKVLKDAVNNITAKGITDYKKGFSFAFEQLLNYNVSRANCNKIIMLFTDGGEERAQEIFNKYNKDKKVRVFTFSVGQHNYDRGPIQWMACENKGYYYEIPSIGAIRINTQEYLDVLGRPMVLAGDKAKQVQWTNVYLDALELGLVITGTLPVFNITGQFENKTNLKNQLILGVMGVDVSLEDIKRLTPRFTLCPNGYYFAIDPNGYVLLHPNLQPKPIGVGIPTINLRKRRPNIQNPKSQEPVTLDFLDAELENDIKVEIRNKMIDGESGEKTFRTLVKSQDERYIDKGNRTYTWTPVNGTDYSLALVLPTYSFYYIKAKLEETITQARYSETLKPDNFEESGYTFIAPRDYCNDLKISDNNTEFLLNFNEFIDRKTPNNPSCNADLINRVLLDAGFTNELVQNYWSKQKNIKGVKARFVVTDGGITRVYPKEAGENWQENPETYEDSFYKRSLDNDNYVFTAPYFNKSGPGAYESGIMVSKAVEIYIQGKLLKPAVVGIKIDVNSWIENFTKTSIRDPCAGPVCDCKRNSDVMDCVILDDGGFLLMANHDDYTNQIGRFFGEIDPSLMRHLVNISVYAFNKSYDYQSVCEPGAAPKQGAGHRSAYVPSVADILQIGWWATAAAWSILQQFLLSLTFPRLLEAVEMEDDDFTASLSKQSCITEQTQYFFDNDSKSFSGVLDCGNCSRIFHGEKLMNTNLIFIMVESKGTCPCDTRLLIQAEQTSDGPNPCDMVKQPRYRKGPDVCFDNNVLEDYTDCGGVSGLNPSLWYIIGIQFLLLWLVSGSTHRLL
Chain of Human Cav 2.2 channels (P54284 whole entry partner): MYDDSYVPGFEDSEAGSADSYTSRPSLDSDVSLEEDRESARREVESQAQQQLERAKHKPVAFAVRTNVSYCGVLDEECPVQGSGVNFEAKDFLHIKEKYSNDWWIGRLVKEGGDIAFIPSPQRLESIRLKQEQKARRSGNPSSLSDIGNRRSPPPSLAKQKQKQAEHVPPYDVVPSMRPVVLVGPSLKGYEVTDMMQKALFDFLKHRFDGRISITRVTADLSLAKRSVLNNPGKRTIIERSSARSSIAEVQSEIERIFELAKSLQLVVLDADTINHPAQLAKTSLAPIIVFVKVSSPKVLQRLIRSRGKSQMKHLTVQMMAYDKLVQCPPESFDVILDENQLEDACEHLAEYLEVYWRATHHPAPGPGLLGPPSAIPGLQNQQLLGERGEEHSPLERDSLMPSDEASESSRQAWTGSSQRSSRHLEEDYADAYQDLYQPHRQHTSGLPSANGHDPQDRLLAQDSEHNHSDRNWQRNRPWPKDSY

Row | Compound | IC50 [1, 5] [µM] | IC50 [1, 6] [µM] | CAv2.2 IC50 Ratio closed/inact. [1] | IC50 [2, 7] [µM] | IC50 [2, 8] [µM] | CAv3.2 IC50 Ratio closed/inact. [2] | IC50 [3] [µM] | IC50 [4, 9] [µM] | IC50 [4, 10] [µM] | CAv1.2 IC50 Ratio closed/inact. [4]
1 | CC(C)([C@H]1C[C@@H](C(=O)Nc2ccc(C(F)(F)F)cc2)C1)S(=O)(=O)c1cccc(C(F)(F)F)c1 [Compound 756] | 3.9 | 0.39 | 10 | 3.52 | 1.2 | 2.9 | 1.59 | 4.19 | 1.37 | 3.1
2 | CC(C)([C@H]1C[C@H](C(=O)NCc2ccc(Oc3ccccc3)cc2)C1)S(=O)(=O)c1cccc(C(F)(F)F)c1 [Compound 764] | 1.02 | 0.11 | 9.3 | 2.9 | 0.43 | 6.7 | 0.78 | 3.24 | 0.83 | 3.9
3 | CC(C)(C[C@H]1C[C@@H](NC(=O)[C@@H]2CCCC[C@@H]2N)C1)S(=O)(=O)c1cccc(C(F)(F)F)c1 [Compound 740] | 3.91 | 0.85 | 4.6 | ≥ 10 | 10 | 1 | ≥ 10 | ≥ 10 | ≥ 10 | –
4 | CC(C)([C@H]1C[C@H](CNc2ccc(F)c(Cl)c2)C1)S(=O)(=O)c1cccc(C(F)(F)F)c1 [Compound 750] | 2.33 | 0.17 | 13.7 | ≥ 10 | 0.74 | 13.5 | 3.37 | 3.42 | 0.99 | 3.5
5 | Cc1nc(C(F)(F)F)ccc1NC(=O)[C@H]1C[C@H](C(C)(C)S(=O)(=O)c2cccc(C(F)(F)F)c2)C1 [Compound 768] | 4.17 | 0.39 | 10.7 | 6.82 | 3.56 | 1.9 | 4.57 | ≥ 10 | 4.42 | 2.3
6 | CC(C)([C@H]1C[C@H](C(=O)Nc2ccc(C(F)(F)F)nc2)C1)S(=O)(=O)c1cccc(C(F)(F)F)c1 [Compound 760] | 2.87 | 0.19 | 15.1 | 4.62 | 0.73 | 6.3 | 2.8 | ≥ 10 | 3.55 | 2.8
7 | CC(C)([C@H]1C[C@H](C(=O)NCc2ccc(C(F)(F)F)nc2)C1)S(=O)(=O)c1cccc(C(F)(F)F)c1 [Compound 767] | 5.37 | 0.57 | 9.4 | ≥ 10 | 9.57 | 1 | ≥ 10 | ≥ 10 | 5.14 | 1.9
8 | CC(C)([C@H]1C[C@@H](C(=O)Nc2ccc(C(F)(F)F)nc2)C1)S(=O)(=O)c1cccc(C(F)(F)F)c1 [Compound 759] | 3.67 | 0.48 | 7.6 | 3.55 | 2.07 | 1.7 | 2.27 | 5.1 | 2.18 | 2.3
9 | CC(C)([C@H]1C[C@H](C(=O)Nc2ccc(C(F)(F)F)cn2)C1)S(=O)(=O)c1cccc(C(F)(F)F)c1 [Compound 766] | 1.69 | 0.13 | 13 | 4.2 | 2.38 | 1.8 | 2.65 | 3.72 | 2.07 | 1.8
10 | CC(C)([C@H]1C[C@H](CNc2ccc(Cl)c(F)c2)C1)S(=O)(=O)c1cccc(C(F)(F)F)c1 [Compound 751] | 3.93 | 0.3 | 13.1 | ≥ 10 | 1.48 | 6.8 | 4.53 | 4.72 | 1.35 | 3.5
11 | Cn1nc(C(F)(F)F)cc1C(=O)N1CC(CS(=O)(=O)c2cc(F)cc(C(F)(F)F)c2)C1 [Compound 748] | 10 | 5.24 | 1.9 | ≥ 10 | 8.42 | 1.2 | ≥ 10 | ≥ 10 | ≥ 10 | –
12 | O=C(c1ccc(OCC(F)(F)F)nc1)N1CC(CS(=O)(=O)c2cc(F)cc(C(F)(F)F)c2)C1 [Compound 747] | 10 | 5.05 | 2 | 9.95 | 5.57 | 1.8 | ≥ 10 | ≥ 10 | 8.8 | 1.1
13 | O=C(NC[C@H]1C[C@H](S(=O)(=O)c2cccc(Cl)c2)C1)c1ccc(C(F)(F)F)cc1 [Compound 771] | 10 | 2.01 | 5 | 5.44 | 3.04 | 1.8 | ≥ 10 | ≥ 10 | ≥ 10 | –
14 | O=C(NC[C@H]1C[C@H](S(=O)(=O)c2cccc(Cl)c2)C1)c1ccc(OCC(F)(F)F)nc1 [Compound 775] | 10 | 5.78 | 1.7 | 8.66 | 1.62 | 5.3 | ≥ 10 | ≥ 10 | ≥ 10 | –
15 | CC(C)([C@H]1C[C@H](C(=O)Nc2ccc(C(F)(F)F)cc2)C1)S(=O)(=O)c1cccc(C(F)(F)F)c1 [Compound 765] | 3.4 | 0.42 | 8.1 | 4.6 | 1.5 | 3.1 | 2.01 | 6.71 | 2.25 | 3
16 | CC(C)([C@H]1C[C@H](C(=O)Nc2ccc(C(F)(F)F)cc2Cl)C1)S(=O)(=O)c1cccc(C(F)(F)F)c1 [Compound 763] | 2.04 | 0.27 | 7.6 | 7.02 | 0.96 | 7.3 | 6.44 | ≥ 10 | 2.19 | 4.6
17 | CC(C)([C@H]1C[C@@H](C(=O)Nc2cc(C(F)(F)F)n[nH]2)C1)S(=O)(=O)c1cccc(C(F)(F)F)c1 [Compound 757] | 5.79 | 0.55 | 10.5 | 6.06 | 2.29 | 2.6 | 2.22 | ≥ 10 | 5.39 | 1.9
